Results taken from PubChem BioAssay AID256 (DTP/NCI, 2004).
“And” between values parts separate entries of the source, which are not always exact repeats. Equal values may be shown once. Toxic doses and inconclusive results are not listed. How the source made its calls: active means survival T/C of 150% or more; inactive means T/C below 125% in these data.

Tested on: CD2F1 mice, L1210 leukemia ip, survival T/C
Assay: NCI In Vivo Anticancer Drug Screen. Data for tumor model L1210 Leukemia (intraperitoneal) in CD2F1 (CDF1) mice
Conditions: endpoint: mean survival time, higher = longer survival
Summary of the method: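 Antitumor effect is scored in animals hosting a serially transplanted tumor. Values compare compound-dosed animals against vehicle-only controls as a simple quotient.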

[1] = dose: 100.0 mg/kg/injection, schedule: Q01DX001 (ip), vehicle: saline with Tween-80
[2] = dose: 200.0 mg/kg/injection, schedule: Q01DX001 (ip), vehicle: saline with Tween-80
[3] = dose: 100.0 mg/kg/injection, schedule: Q01DX009 (ip), vehicle: saline with Tween-80
[4] = dose: 200.0 mg/kg/injection, schedule: Q01DX009 (ip), vehicle: saline with Tween-80
[5] = dose: 100.0 mg/kg/injection, schedule: Q04DX003 (ip), vehicle: saline with Tween-80
[6] = dose: 200.0 mg/kg/injection, schedule: Q04DX003 (ip), vehicle: saline with Tween-80
[7] = dose: 400.0 mg/kg/injection, schedule: Q01DX001 (ip), vehicle: saline with Tween-80
[8] = dose: 400.0 mg/kg/injection, schedule: Q01DX009 (ip), vehicle: saline with Tween-80
[9] = dose: 400.0 mg/kg/injection, schedule: Q04DX003 (ip), vehicle: saline with Tween-80

Measured: T/C

O=C(Nc1cc2ccccc2o1)N1CCOCC1
inactive: dose: 50.0 mg/kg/injection, schedule: Q01DX001 (ip), vehicle: saline with Tween-80 94 % of control | [1] 97 % of control | [2] 100 % of control

Oc1c(C(c2ccccc2)N2CCCCC2)ccc2ccccc12 (stereo not drawn)
inactive: [3] 101 % of control | [4] 97 % of control

Nc1ccc2cc(Cl)ccc2c1
inactive: dose: 50.0 mg/kg/injection, schedule: Q01DX009 (ip), vehicle: saline with Tween-80 103 % of control | [3] 105 % of control | [5] 95 % of control | [6] 95 % of control

CCOC(=O)c1ccc(NC(=S)NC(=O)c2cccc(Br)c2)cc1
inactive: [1] 101 % of control and 112 % of control | [3] 92 % of control and 98 % of control | dose: 100.0 mg/kg/injection, schedule: Q04DX002 (ip), vehicle: saline with Tween-80 93 % of control | [5] 96 % of control | [2] 97 % of control and 101 % of control | [4] 94 % of control and 95 % of control | dose: 200.0 mg/kg/injection, schedule: Q04DX002 (ip), vehicle: saline with Tween-80 95 % of control | [6] 98 % of control | [7] 101 % of control | [8] 97 % of control and 106 % of control | dose: 400.0 mg/kg/injection, schedule: Q04DX002 (ip), vehicle: saline with Tween-80 96 % of control | [9] 93 % of control

CC(=O)Nc1nc(C)c(CC/C=C/c2ccc([N+](=O)[O-])cc2)c(Cl)n1
inactive: [1] 94 % of control | [2] 89 % of control | [7] 89 % of control

CC(C)(Cl)[N+](=O)[O-]
inactive: dose: 100.0 mg/kg/injection, schedule: Q04DX003 (ip), vehicle: saline 98 % of control | dose: 200.0 mg/kg/injection, schedule: Q04DX003 (ip), vehicle: saline 104 % of control | dose: 400.0 mg/kg/injection, schedule: Q04DX003 (ip), vehicle: saline 96 % of control

CCC(CC)=NN(C)C
inactive: dose: 75.0 mg/kg/injection, schedule: Q01DX001 (ip), vehicle: saline 100 % of control | dose: 150.0 mg/kg/injection, schedule: Q01DX001 (ip), vehicle: saline 96 % of control | dose: 300.0 mg/kg/injection, schedule: Q01DX001 (ip), vehicle: saline 96 % of control

CCCC(C)(CC)NC(=O)OCC (stereo not drawn)
inactive: dose: 100.0 mg/kg/injection, schedule: Q01DX001 (ip), vehicle: saline 107 % of control | dose: 200.0 mg/kg/injection, schedule: Q01DX001 (ip), vehicle: saline 111 % of control | dose: 400.0 mg/kg/injection, schedule: Q01DX001 (ip), vehicle: saline 111 % of control

COC(=N)/C(C#N)=N/C1OCC(O)C(O)C1O (stereo not drawn)
inactive: dose: 12.5 mg/kg/injection, schedule: Q01DX005 (ip), vehicle: other 101 % of control | dose: 25.0 mg/kg/injection, schedule: Q01DX005 (ip), vehicle: other 102 % of control | dose: 50.0 mg/kg/injection, schedule: Q01DX005 (ip), vehicle: other 102 % of control | dose: 100.0 mg/kg/injection, schedule: Q01DX005 (ip), vehicle: other 102 % of control | dose: 200.0 mg/kg/injection, schedule: Q01DX005 (ip), vehicle: other 101 % of control

[CH3][Sn]([Br])([Br])[CH2]CCCBr
inactive: dose: 0.39 mg/kg/injection, schedule: Q01DX009 (ip), vehicle: saline 90 % of control | dose: 0.78 mg/kg/injection, schedule: Q01DX009 (ip), vehicle: saline 97 % of control | dose: 1.56 mg/kg/injection, schedule: Q01DX009 (ip), vehicle: saline 97 % of control | dose: 6.25 mg/kg/injection, schedule: Q01DX009 (ip), vehicle: saline 110 % of control

O=S(=O)(Cc1ccccc1)Cc1ccccc1
inactive: [3] 101 % of control | [5] 103 % of control | [4] 98 % of control | [6] 103 % of control | [8] 96 % of control | [9] 102 % of control
